# In ChEMBL document CHEMBL3507680, “University of Dundee, Gates Library screen for HepG2 cell viability”:
# Assay: Human HepG2 cell viability assay in 384 well format
# Assay type: toxicity, cell-based
# Parameters: dose 125 nL, time 70.5 hour; cytotoxicity at 70.5 h: concentration not given beside the values
# Details: HepG2 cells, read-out: Inhibition
smiles,measurement,value
Cc1nnc2n1CCN(C(C(N)=O)c1ccc(F)cc1)C2 (centres undefined),cytotoxicity at 70.5 h,-16.8%
Cc1nn(Cc2ccc(F)cc2)c2[nH]nc(N)c12,cytotoxicity at 70.5 h,-9.36%
O=C(Nc1ccc(F)c(Br)c1)N1CCCC1,cytotoxicity at 70.5 h,-1.36%
Cc1ccc(-c2nnc([C@H]3CCN(C4CCC4)C3)o2)cc1,cytotoxicity at 70.5 h,16.3%
COc1ccc(-c2nnc([C@H]3CCN(C4CCC4)C3)o2)cc1,cytotoxicity at 70.5 h,-0.264%
CC(C)(C)CN1CC[C@H](c2nnc(Cc3c[nH]c4ccccc34)o2)C1,cytotoxicity at 70.5 h,15.2%
O=C1CO[C@H]2CN(C3CCOCC3)C[C@H]2N1Cc1ccc(F)cc1,cytotoxicity at 70.5 h,16.1%
Fc1cccc(-c2c[nH]c([C@@H]3COCCN3C3CCOCC3)n2)c1,cytotoxicity at 70.5 h,-8.23%
Cc1ccc2[nH]c([C@H]3CCN(CC4CCCCC4)C3)nc2c1,cytotoxicity at 70.5 h,5.77%
Cc1ccc(CNC2(Cc3cc(CC(C)C)on3)COC2)o1,cytotoxicity at 70.5 h,9.27%
CC1(C)[C@H](Cc2cc(CN3CCCCC3)on2)C[C@@H]1NC(=O)C1CC1,cytotoxicity at 70.5 h,10.2%
CC[C@H]1CN2CC[C@H]1C[C@@H]2CNCc1cccc(C#N)c1,cytotoxicity at 70.5 h,13%
Cc1ccccc1CN1CC[C@H](c2nnc(-c3cncn3C)o2)C1,cytotoxicity at 70.5 h,1.18%
c1cncc(-c2nnc([C@H]3CCN(CC4CC4)C3)o2)c1,cytotoxicity at 70.5 h,8.27%
Fc1ccc(OCc2nnc([C@H]3CCN(Cc4ccccn4)C3)o2)cc1,cytotoxicity at 70.5 h,-7.48%
CC(C)N1CC[C@H](c2nnc(Cc3c[nH]c4ccccc34)o2)C1,cytotoxicity at 70.5 h,-4.41%
F[C@@H]1CN(Cc2cccnc2)C[C@@H]1OCc1nc2ccccc2[nH]1,cytotoxicity at 70.5 h,-3.79%
CN1C(=O)CO[C@H](c2ccc(NC(=O)NC(C)(C)C)cc2)[C@H]1CO,cytotoxicity at 70.5 h,-0.339%
N#Cc1ccc(CN2C[C@@H](F)[C@@H](OCc3nc4cnccc4[nH]3)C2)cc1,cytotoxicity at 70.5 h,-1.95%
COc1ccccc1CN1C[C@@H](F)[C@@H](OCc2nc3cnccc3[nH]2)C1,cytotoxicity at 70.5 h,-4.23%
F[C@@H]1CN(CC2CC2)C[C@@H]1OCc1nc2ccccc2[nH]1,cytotoxicity at 70.5 h,14.4%
Cc1cccc2c1nc1n2[C@@H](CNC(=O)c2ccncc2)COC1,cytotoxicity at 70.5 h,-3.38%
COc1ccc(CNC[C@H]2COCc3nc4cc(F)ccc4n32)cn1,cytotoxicity at 70.5 h,-18.3%
COc1ccc2nc(C[C@@H]3C[C@@H](C(C)C)[C@H](CN)C=C3C)[nH]c2n1,cytotoxicity at 70.5 h,-4.84%
CCS(=O)(=O)c1ccc2oc([C@H]3CCN(Cc4ccncc4)C3)nc2c1,cytotoxicity at 70.5 h,6.63%
COC(=O)[C@H]1CN(C(=O)NC(C)C)CCN1C(=O)c1cccs1,cytotoxicity at 70.5 h,-5.45%
O=C(NCc1cccnc1)[C@H]1CN2CCC1C[C@@H]2Cn1cc(CO)nn1 (some centres undefined),cytotoxicity at 70.5 h,-6.61%
Cc1cccc(-c2noc([C@@H]3Cc4nc[nH]c4CN3)n2)c1,cytotoxicity at 70.5 h,-3%
CC1=C[C@@H](CN2CCC(CO)CC2)[C@H](C(C)C)C[C@H]1Cc1nnc(C)o1,cytotoxicity at 70.5 h,-1.39%
COCCOc1ccnc(-c2noc([C@@H]3CCCN3CC(C)C)n2)c1,cytotoxicity at 70.5 h,-5.97%
c1cc(-c2noc([C@@H]3CCCN3C3CCC3)n2)cc(N2CCCC2)n1,cytotoxicity at 70.5 h,-6.56%
CC(C)CN1C[C@@H]2OCC(=O)N(c3ccccc3)[C@@H]2C1,cytotoxicity at 70.5 h,-15.4%
O=C1CO[C@H]2CN(S(=O)(=O)c3ccccc3)C[C@H]2N1CC1CCCCC1,cytotoxicity at 70.5 h,-11.1%
CC(C)NC(=O)N[C@H]1C[C@@H](c2nc(-c3ccc(F)cc3)no2)N(C)C1,cytotoxicity at 70.5 h,-4.13%
Cc1ccc(CN2CC[C@H](c3nc4cccc(C(N)=O)c4[nH]3)C2)cc1,cytotoxicity at 70.5 h,31.1%
O=C(NC[C@H]1C[C@@H]2CCN1C[C@@H]2CN1CCCC1)c1ccco1,cytotoxicity at 70.5 h,-4.55%
Clc1ccc(-c2nnc([C@H]3CCN(C4CCCCC4)C3)o2)cc1,cytotoxicity at 70.5 h,-3.54%
COCc1cc(CC2(NC3CCCCC3)COC2)no1,cytotoxicity at 70.5 h,9.57%
CC1(C)[C@H](Cc2cc(CN3CCOCC3)on2)C[C@@H]1NC(=O)C1CCC1,cytotoxicity at 70.5 h,11.5%
CN(C)[C@H]1C[C@@H](Cc2cc(CO)on2)C1(C)C,cytotoxicity at 70.5 h,-14.4%
COc1ccc(CN[C@@H]2CO[C@H](CNC(=O)N3CCOCC3)[C@H]2O)cc1,cytotoxicity at 70.5 h,2.1%
CC(C)(C)CC(=O)N[C@@H]1CO[C@H](CNC(=O)c2ccncc2)[C@H]1O,cytotoxicity at 70.5 h,-2.51%
COCc1cc(C[C@@H]2CC[C@H](O)[C@@H](CN(CC(C)C)CC(C)C)O2)no1,cytotoxicity at 70.5 h,-0.301%
O=C(NC[C@H]1OC[C@@H](NCc2cccs2)[C@@H]1O)N1CCOCC1,cytotoxicity at 70.5 h,8.48%
Cc1ccc(CNC2(Cc3cc(-c4ccccc4)on3)COC2)o1,cytotoxicity at 70.5 h,-0.988%
CC(C)CN1CC[C@H](c2nnc(COc3ccc(F)cc3)o2)C1,cytotoxicity at 70.5 h,-3.77%
O=C1C[C@@H]2CCN(Cc3ccccc3)C[C@@H]2CCN1c1ccccc1,cytotoxicity at 70.5 h,6.43%
CN1CCOC[C@H]1c1nc(C(C)(C)C)c[nH]1,cytotoxicity at 70.5 h,11.4%
CN1CCOC[C@H]1c1nc(-c2cccnc2)c[nH]1,cytotoxicity at 70.5 h,-7.84%
CN(C)[C@@H]1CO[C@H](CNC(=O)Nc2ccccc2)[C@H]1O,cytotoxicity at 70.5 h,-1.04%
O[C@H]1CC[C@@H](Cc2cc(-c3ccc(F)cc3)on2)O[C@@H]1CNCC1CC1,cytotoxicity at 70.5 h,-5.85%
CCCN1C(=O)[C@@H]2[C@@H](CCN2C(=O)COC)N(Cc2cccs2)C1=O,cytotoxicity at 70.5 h,11.5%
CC(=O)NC[C@@H]1C=C(C)[C@H](CC(=O)NCCN(C)C)C[C@H]1C(C)C,cytotoxicity at 70.5 h,23.8%
CCc1nc(C)c([C@H]2CN(C)C[C@@H]2C(=O)NCCc2cnccn2)[nH]1,cytotoxicity at 70.5 h,-5.77%
Cc1cc(N2CCCCCC2)n2nc(C)c(C)c2n1,cytotoxicity at 70.5 h,-4.52%
O=C(CCc1cccnc1)N(Cc1ccsc1)CC1CCCO1 (centres undefined),cytotoxicity at 70.5 h,-6.73%
CC(C)NC(=O)[C@@H]1C[C@H](N)CN1C(=O)c1cc2ccccc2[nH]c1=O,cytotoxicity at 70.5 h,-8.06%
Cc1nonc1CC(=O)N1C[C@@H]2CC[C@H](C1)N(Cc1ccccc1)C2=O,cytotoxicity at 70.5 h,8.97%
c1cn(Cc2nnc(C3CCN(c4nccs4)CC3)n2C2CC2)cn1,cytotoxicity at 70.5 h,-4.16%
CC(C)c1cc(NCC(C)N2CCCC2)n2nccc2n1 (centres undefined),cytotoxicity at 70.5 h,-10.1%
CN(CCO)C[C@@H]1CN(C(=O)c2c(F)cccc2Cl)C[C@@H]1CO,cytotoxicity at 70.5 h,-8.11%
O=C(c1cccnc1)N1C[C@@H]2CC[C@H](C1)N(Cc1ncc[nH]1)C2,cytotoxicity at 70.5 h,-7.7%
Cc1cc(NCc2cc3n(n2)CCCN(S(C)(=O)=O)C3)ncn1,cytotoxicity at 70.5 h,-5.23%
CC(C)=CCN1C(=O)[C@H]2CC[C@@H]1CN(Cc1cccnc1N)C2,cytotoxicity at 70.5 h,-4.57%
O=C(CCc1cc2n(n1)CCCN(Cc1ccccc1F)C2)NC1CC1,cytotoxicity at 70.5 h,0.504%
Cc1cc2c(cc1C(=O)N1CC[C@H](CO)[C@@H](O)C1)OCCO2,cytotoxicity at 70.5 h,-7.62%
O=C(Cc1ccc2c(c1)OCO2)N1CCCN(c2ccccc2)CC1,cytotoxicity at 70.5 h,-4.44%
COc1cccc2c1OCC(C(=O)N1CCN(S(C)(=O)=O)CC1)C2 (centres undefined),cytotoxicity at 70.5 h,20.3%
Cc1ccc(C(=O)N2CCN(S(C)(=O)=O)CC2)cc1N1CCNC1=O,cytotoxicity at 70.5 h,-1.5%
O=C(c1cc(COc2ccc3c(c2)OCO3)[nH]n1)N1CCCC1,cytotoxicity at 70.5 h,-5.85%
CCn1c(CN(C)C)nnc1C1CCN(Cc2cccc(OC)c2)CC1,cytotoxicity at 70.5 h,4.9%
CN(C)Cc1ccc(C2CCCCN2C(=O)c2cccc(CO)n2)cc1 (centres undefined),cytotoxicity at 70.5 h,23.6%
Clc1ccccc1C1(c2ccnc(-c3ccncc3)n2)CCNCC1,cytotoxicity at 70.5 h,-5.92%
Cc1ccc([C@@H]2CN(C(=O)c3csc(C)n3)C[C@H]2NC(=O)C2CC2)cc1,cytotoxicity at 70.5 h,-12.3%
CCC(=O)N1CCc2[nH]cnc2C12CCN(C(=O)CCS(C)(=O)=O)CC2,cytotoxicity at 70.5 h,-1.4%
CN(Cc1cccc(O)c1)CC1CCCN(CCc2ccc(Cl)cc2)C1 (centres undefined),cytotoxicity at 70.5 h,10.2%
CN(C)CC(=O)N1CCCC2(CCC(=O)N(CCc3c[nH]cn3)C2)C1 (centres undefined),cytotoxicity at 70.5 h,-14.8%
COCc1cc(NCc2cc(F)ccc2F)n2nccc2n1,cytotoxicity at 70.5 h,-0.226%
CN(CCc1ccccc1)C1CCCN(Cc2nccn2C)C1 (centres undefined),cytotoxicity at 70.5 h,-4.92%
Cc1cc(N2CCN(Cc3nccn3C)CC2)cc(C)n1,cytotoxicity at 70.5 h,18.4%
CN(C)C(=O)CN1C[C@@H]2CC[C@H](C1)N(Cc1cccc(Cl)c1Cl)C2,cytotoxicity at 70.5 h,7.51%
Fc1ccccc1Cc1noc(CN2CCCC(CN3CCCC3)C2)n1 (centres undefined),cytotoxicity at 70.5 h,-2.47%
CCCN(CCO)C(=O)C1CCC(=O)N(CCc2ccc(Cl)cc2)C1 (centres undefined),cytotoxicity at 70.5 h,-4.6%
CSc1ccc(-c2nc(CN3CCC(NC(C)=O)C3)c(C)o2)cc1 (centres undefined),cytotoxicity at 70.5 h,-1.58%
CC(CN1CCOCC1)NCC1CCN(c2cnn(C)c(=O)c2)CC1 (centres undefined),cytotoxicity at 70.5 h,-4.8%
CC(C)CCc1noc(CN2CCCN(C(=O)c3ccco3)CC2)n1,cytotoxicity at 70.5 h,-0.918%
Cn1cccc1-c1cc(C(=O)N2CC(c3cccnc3)C2)[nH]n1,cytotoxicity at 70.5 h,-5.83%
CSc1ncccc1C(=O)N1C[C@H]2CC[C@@H]1CN(c1cnccn1)C2,cytotoxicity at 70.5 h,-10.6%
O=C1CC2(CCN(CCO)CC2)CN1Cc1cc(F)cc(F)c1,cytotoxicity at 70.5 h,-7.72%
COCCN(C)C[C@@H]1CN(C(=O)c2ccoc2)C[C@@H]1CO,cytotoxicity at 70.5 h,-7.32%
COc1ccc2c(c1)CCN(CCC(=O)O)CC2,cytotoxicity at 70.5 h,12.3%
Cc1ccsc1CN(Cc1ccccn1)CC(C)C,cytotoxicity at 70.5 h,-6.06%
CCCc1cc(C(=O)N(C)Cc2cnc3ccccc3n2)n(C)n1,cytotoxicity at 70.5 h,-4.51%
CC(C)c1cc(NCC(O)c2ccc(F)cc2)n2nccc2n1 (centres undefined),cytotoxicity at 70.5 h,0.769%
N#CC1CCCN(c2nc(-c3ccccc3)nc3c2CCNCC3)C1 (centres undefined),cytotoxicity at 70.5 h,6.37%
Cc1nc[nH]c1-c1nc2cc(S(=O)(=O)N3CCCC3)ccc2n1C,cytotoxicity at 70.5 h,-2.05%
CN1CC(c2ccccc2)CC12CCN(C(=O)c1c(Cl)cnn1C)CC2 (centres undefined),cytotoxicity at 70.5 h,-7.56%
COC(C(=O)N1CCN(c2cccc(Cl)c2)C(=O)C1)c1ccccc1 (centres undefined),cytotoxicity at 70.5 h,-7.64%
Cc1ccccc1CSc1nc(N)cc(N2CC[C@@H](O)C2)n1,cytotoxicity at 70.5 h,-6.37%
Cc1nc(CN2CCCC2c2nc(C(C)C)no2)cs1 (centres undefined),cytotoxicity at 70.5 h,-2.96%
Cc1nc(N2CCN(C)CC2)ncc1C(=O)N1CC(C)(C)C(C)(O)C1 (centres undefined),cytotoxicity at 70.5 h,14.1%
CN(C)CCNC(=O)c1ccc(OC2CCN(S(C)(=O)=O)CC2)c(Cl)c1,cytotoxicity at 70.5 h,-9.41%
Cc1ccc(F)cc1C(=O)N1C[C@@H](CN2CCOCC2)[C@@H](CO)C1,cytotoxicity at 70.5 h,-6.59%
C[C@@H]1CN(C2(C(=O)N3CCOCC3)Cc3ccccc3C2)C[C@H](C)O1,cytotoxicity at 70.5 h,2.82%
